In patent US20240269058A1, “AGAR HYDROLYSIS PRODUCT HAVING HYALURONIDASE INHIBITORY ACTIVITY AND USES THEREOF” (KOREA INSTITUTE OF OCEAN SCIENCE & TECHNOLOGY, priority 2022, published 2024):

Target: hyaluronidase (HAase)
Assay: Hyaluronidase (HAase) inhibitory activity, N-acetylglucosamine from hyaluronic acid, DMAB absorbance at 540 nm
Format: biochemical
Procedure: The hyaluronidase (HAase) inhibitory activity was identified by measuring N-acetylglucosamine produced by degradation of hyaluronic acid by hyaluronidase. 12.5 μL of HAase (8 mg/mL) dissolved in 0.1 M acetate buffer (pH 3.5) was mixed with 12.5 μL of agar partial hydrolysis product (PHP) at a concentration of 9 mg/mL and reacted at 37° C. for 20 minutes. To activate the HAase, the mixture was added with 25 μL of 12.5 mM CaCl2) and reacted at 37 °C for 20 minutes, and added with 62.5 μL of hyaluronic acid (2.4 mg/ml) dissolved in 0.1 M acetate buffer (pH 3.5) and reacted at 37° ° C. for 40 minutes again. To stop the substrate-enzyme reaction, the reaction solution was added with 25 μl of 0.4 N NaOH and 25 μl of 0.4 N potassium tetraborate, reacted at 100° C. for 3 minutes, and then cooled. The reaction solution was added with 750 μl of a DMAB solution and cultured at 37 °C for 20 minutes, and the absorbance was measured at 540 nm. The inhibitory activity was calculated using the following equation.

IC50 (hyaluronidase inhibition): 28 ± 10 µg/mL
Inhibition (%) (sample solution 1 mg/mL): 65.32 ± 0.20%
Compound: O=C([O-])c1cc(=O)c2c(OCC(O)COc3cccc4oc(C(=O)[O-])cc(=O)c34)cccc2o1.[Na+].[Na+] [DSCG, Disodium cromoglycate]
